Test results as given in US7524880B2, “Crystalline form of a substituted pyrrolidine compound” (Theravance, Inc., priority 2004, dated 2009).

Biological target: T1, hM3 receptor (Homo sapiens, UniProt P20309)
T1 construct: expressed in transfected cells
Test: Blockade of agonist-mediated calcium release via FLIPR
Format: cell-based
Details: CHO cells stably expressing the hM3 receptor, oxotremorine EC90
Description: C. Blockade of Agonist-Mediated Calcium Release Via FLIPR Assays
Muscarinic receptor subtypes (M1, M3 and M5 receptors), which couple to Gq proteins, activate the phospholipase C (PLC) pathway upon agonist binding to the receptor. As a result, activated PLC hydrolyzes phosphatyl inositol diphosphate (PIP2) to diacylglycerol (DAG) and phosphatidyl-1,4,5-triphosphate (IP3), which in turn generates calcium release from intracellular stores, i.e., endoplasmic and sarcoplasmic reticulum. […] This fluorescence event is measured in real time by the FLIPR, which detects the change in fluorescence from a monolayer of cells cloned with human M1 and M3, and chimpanzee M5 receptors. Antagonist potency is determined by the ability of antagonists to inhibit agonist-mediated increases in intracellular calcium. […]
To determine antagonist potency, the dose-dependent stimulation of intracellular Ca^2+ release for oxotremorine was first determined so that antagonist potency can later be measured against oxotremorine stimulation at an EC90 concentration. […]
The parameters used for the FLIPR were: exposure length of 0.4 seconds, laser strength of 0.5 watts, excitation wavelength of 488 nm, and emission wavelength of 550 nm. Baseline was determined by measuring the change in fluorescence for 10 seconds prior to addition of agonist. […]

T1 sequence (P20309 whole entry): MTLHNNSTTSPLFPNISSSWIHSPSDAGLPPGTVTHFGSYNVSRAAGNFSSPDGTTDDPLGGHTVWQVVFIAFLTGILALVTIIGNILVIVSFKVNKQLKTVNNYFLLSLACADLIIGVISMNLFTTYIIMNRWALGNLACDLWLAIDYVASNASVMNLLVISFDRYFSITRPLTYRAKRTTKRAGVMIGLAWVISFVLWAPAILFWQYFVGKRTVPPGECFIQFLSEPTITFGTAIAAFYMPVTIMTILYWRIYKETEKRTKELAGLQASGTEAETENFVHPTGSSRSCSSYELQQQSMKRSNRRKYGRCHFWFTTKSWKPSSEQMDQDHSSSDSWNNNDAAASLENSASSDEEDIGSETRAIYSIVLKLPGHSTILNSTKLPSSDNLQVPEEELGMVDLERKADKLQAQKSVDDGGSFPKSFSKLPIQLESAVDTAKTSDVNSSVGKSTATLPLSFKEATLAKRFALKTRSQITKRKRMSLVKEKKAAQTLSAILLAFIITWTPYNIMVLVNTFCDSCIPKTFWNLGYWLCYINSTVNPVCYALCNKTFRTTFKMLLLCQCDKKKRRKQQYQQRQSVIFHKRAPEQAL

Compound: CNCCCCCCCCN1CC[C@@H](C(C(N)=O)(c2ccccc2)c2ccccc2)C1 [compound of formula I, 2-[(S)-1-(8-methylaminooctyl)pyrrolidin-3-yl]-2,2-diphenylacetamide]
- Ki: < 5 nM
